Assays:
[1] = system: MNK45-human gastric cancer; test: Antiproliferative effect in tumor cell culture (CYQuant intracellular DNA, 72 hours), MNK45; type: cell-based
Protocol: (§1) For the execution of the assay, the compounds are diluted in DMSO 100% (v/v) at a concentration of 1000 μM and subsequently diluted in a Sodium Chloride solution 0.9% to obtain the storage solutions of interest for use in the assays. The final concentration of interest will be directly diluted in the cell culture medium. For the assay there are used the following tumor cell lineages: PC3-human prostate cancer cells; LNCAP-human prostate cancer cells; DU145-human prostate cancer; MNK45-human gastric cancer and RT4-human bladder cancer cells. The tumor cell lineages are maintained in culture according to standard procedures established by the Cell Bank of Rio de Janeiro (lineage place of origin). For the assay, the tumor cells are seeded in the concentration of 10.000 cells per well (final volume of the reaction of […]), the plate is incubated for 8 hours, for the cells to adhere to the wall of the wells. After this period, the plate is divided in groups: • (a) test group: […] of the samples were added (test compound) in the concentrations of interest; • (b) positive control group: […] of culture medium were added (100% of cell proliferation); • (c) negative control group: 200 mL of culture medium and […] of the vehicle used were added to dilute the compounds (without cells—zero proliferation); • (d) control group: […] were added of the vehicle used to dilute the compounds. This group is important to evaluate whether the vehicle used interferes in the cell proliferation. OBSERVATION: the treatment with the concentrations of samples (test compounds) and of the controls are carried out in triplicate. Incubate the plate for 72 hours in a CO2 kiln at 37° C. After the incubation period, add […]/well of the solution with DNA marker from the CYQuant Kit and incubate the plate, for 60 minutes, in a CO2 incubator at 37° C. The fluorescence intensity is determined using a fluorescence microplate reader with 485 nm excitation and 530 nm emission detection. The results obtained were normalized relative to the positive control group (100% proliferation). For the compounds there are prepared the storage solutions in the concentrations of: 100 nM, 1 μM, 3 μM, 5 μM, 10 μM and 30 μM (DMSO 10% v/v). While the final concentrations in the test are of: 10 nM, 100 nM, 300 nM, 500 nM, 1000 nM and 3000 nM (in DMSO 1% v/v).

[2] = system: DU145-human prostate cancer; test: Antiproliferative effect in tumor cell culture (CYQuant intracellular DNA, 72 hours), DU145; type: cell-based; conditions: for % Cell Proliferation Inhibition (intracellular DNA) DU145 (average ± E.P.M.): 72 hours
Protocol: as §1

[3] = system: RT4-human bladder cancer cells; test: Antiproliferative effect in tumor cell culture (CYQuant intracellular DNA, 72 hours), RT4; type: cell-based; conditions: for % Cell Proliferation Inhibition (intracellular DNA) RT4 (average ± E.P.M.): 72 hours
Protocol: as §1

[4] = system: PC3-human prostate cancer cells; test: Antiproliferative effect in tumor cell culture (CYQuant intracellular DNA, 72 hours), PC3; type: cell-based; conditions: for % Cell Proliferation Inhibition (intracellular DNA) PC-3 (average ± E.P.M.): 72 hours
Protocol: as §1

[5] = system: LNCAP-human prostate cancer cells; test: Antiproliferative effect in tumor cell culture (CYQuant intracellular DNA, 72 hours), LNCAP; type: cell-based; conditions: for % Cell Proliferation Inhibition (intracellular DNA) LNCAP (average ± E.P.M.): 72 hours
Protocol: as §1

PDE5A1 enzyme = target: T1, PDE5A1 enzyme (Homo sapiens, UniProt O76074); test: In vitro inhibition of human phosphodiesterase enzyme 5 (BPS Bioscience PDE5A1 assay kit, fluorescence polarization); type: biochemical
T1 construct: purchased BPS Bioscience 60350
Protocol: The evaluation of the compound is studied using BPS Bioscience enzyme assay kit (catalogue 60350). The PDE5A1 Assay kit is designed for identification of PDE5A1 inhibitors using fluorescence polarization. The assay is based on the binding of a fluorescent nucleotide monophosphate generated by PDE5A1 enzyme to the binding agent.
In this methodology only two simple steps on a microtiter plate are required for PDE5A1 reactions. First, the fluorescently labeled cGMP is incubated with PDE5A1 for 1 hour. Second, the binding agent is added to the reaction mixture to produce a change in fluorescent polarization that can then be measured using a fluorescence reader equipped for the measurement of fluorescence polarization.
For the assay the storage reagent FAM-Cyclic-3′, 5′-GMP (20 μM) is diluted with PDE assay buffer to achieve the solution with a […] concentration; the PDE5A1 enzyme is thawed and diluted with the PDE buffer obtaining a PDE5A1 solution at 10 pg/mL.
The assay compounds are diluted with DMSO 100% (v/v) at a concentration of 1000 μM and subsequently diluted in a Sodium chloride 0.9% solution to obtain a curve of concentrations of interest for the assay. The compounds are diluted in concentrations of: 10 nM, 30 nM, 50 nM, 100 nM, 300 nM, 500 nM, 1 μM, 3 μM, 5 μM (DMSO 10% v/v).
The study is comprised of groups: (i) substrate control; (ii) positive control (KIT); (iii) samples in several concentrations; (iv) tadalafil (comparative control). Each parameter (group) is triple labeled.
For the 4 groups there is added, to each microplate well, […] of the FAM-Cyclic-3′ reagent, 5′-GMP (200 μM).
To the substrate control group there is added, to each well, […] of vehicle (DMSO 10% v/v) and […] PDE Buffer.
To the positive control group there is added, to each well, […] of vehicle (DMSO 10% v/v).
To the tadalafil group: there is added […] of the solution in the concentrations of interest.
To the test group there is added […] of the sample solution (test compound)
OBSERVATION: the parameters tested are in triplicate.
To begin the reaction, add […] of the PDE5A1 enzyme (diluted as described above) to the microplate wells designated as Positive Control and Samples (test and tadalafil), and incubate the microplate, for 1 hour, at a temperature of 25° C.
After the incubation period, the reaction is interrupted by the addition, in all the wells, of […] of the binding agent solution and the microplate is incubated for 30 minutes, under light stirring, at room temperature. The reading of the microplate is carried out in Polarized Fluorescence (475-495 nm—excitation and 518-538 nm—emission detection) 500 nanoseconds integration time.

## CC(CO)N1CC(=O)N2C(=C(c3c[nH]c4ccccc34)OC2c2ccc3c(c2)OCO3)C1=O (mixture of isomers) [BL-241, (R)-3-(benzo[d][1,3]dioxol-5-yl)-7-((S)-1-hydroxypropan-2-yl)-1-(1H-indole-3-yl)-6,7-dihydro-3H-oxazole[3,4-a]pyrazine-5,8-dione with (S)-3-(benzo[d][1,3]dioxol-5-yl)-7-((S)-1-hydroxypropan-2-yl)-1-(1H-indole-3-yl)-6,7-dihydro-3H -oxazole[3,4-a]pyrazine-5,8-dione]
[1]; 100 nM, 0.1 µM
  % Cell Proliferation Inhibition (intracellular DNA) MNK45 (average ± E.P.M.): 25 ± 1%
[1]; 300 nM, 0.3 µM
  % Cell Proliferation Inhibition (intracellular DNA) MNK45 (average ± E.P.M.): 10 ± 2%
[1]; 500 nM, 0.5 µM
  % Cell Proliferation Inhibition (intracellular DNA) MNK45 (average ± E.P.M.): 2 ± 1%
[1]; 1000 nM, 1 µM
  % Cell Proliferation Inhibition (intracellular DNA) MNK45 (average ± E.P.M.): 4 ± 1%
[1]; 3000 nM, 3 µM
  % Cell Proliferation Inhibition (intracellular DNA) MNK45 (average ± E.P.M.): 20 ± 3%
[2]; 100 nM, 0.1 µM
  % Cell Proliferation Inhibition (intracellular DNA) DU145 (average ± E.P.M.): 33 ± 8%
[2]; 300 nM, 0.3 µM
  % Cell Proliferation Inhibition (intracellular DNA) DU145 (average ± E.P.M.): 17 ± 3%
[2]; 500 nM, 0.5 µM
  % Cell Proliferation Inhibition (intracellular DNA) DU145 (average ± E.P.M.): 18 ± 2%
[2]; 1000 nM, 1 µM
  % Cell Proliferation Inhibition (intracellular DNA) DU145 (average ± E.P.M.): 22 ± 2%
[2]; 3000 nM, 3 µM
  % Cell Proliferation Inhibition (intracellular DNA) DU145 (average ± E.P.M.): 43 ± 5%
[2]; DU145 prostate cancer tumor lineage
  antiproliferative effect, result in words: antiproliferative effect
[3]; 100 nM, 0.1 µM
  % Cell Proliferation Inhibition (intracellular DNA) RT4 (average ± E.P.M.): 28 ± 6%
[3]; 300 nM, 0.3 µM
  % Cell Proliferation Inhibition (intracellular DNA) RT4 (average ± E.P.M.): 5 ± 2%
[3]; 500 nM, 0.5 µM
  % Cell Proliferation Inhibition (intracellular DNA) RT4 (average ± E.P.M.): 4 ± 2%
[3]; 1000 nM, 1 µM
  % Cell Proliferation Inhibition (intracellular DNA) RT4 (average ± E.P.M.): 11 ± 8%
[3]; 3000 nM, 3 µM
  % Cell Proliferation Inhibition (intracellular DNA) RT4 (average ± E.P.M.): 57 ± 4%
[3]; RT4 bladder cancer tumor lineage
  antiproliferative effect, result in words: antiproliferative effect
[4]; 10 nM, 0.01 µM
  % Cell Proliferation Inhibition (intracellular DNA) PC-3 (average ± E.P.M.): 27 ± 11%
[4]; 100 nM, 0.1 µM
  % Cell Proliferation Inhibition (intracellular DNA) PC-3 (average ± E.P.M.): 36 ± 7%
[4]; 300 nM, 0.3 µM
  % Cell Proliferation Inhibition (intracellular DNA) PC-3 (average ± E.P.M.): 42 ± 6%
[4]; 500 nM, 0.5 µM
  % Cell Proliferation Inhibition (intracellular DNA) PC-3 (average ± E.P.M.): 46 ± 1%
[4]; 1000 nM, 1 µM
  % Cell Proliferation Inhibition (intracellular DNA) PC-3 (average ± E.P.M.): 33 ± 3%
[4]; PC3 prostate cancer tumor lineage
  antiproliferative effect, result in words: antiproliferative effect
[5]; 10 nM, 0.01 µM
  % Cell Proliferation Inhibition (intracellular DNA) LNCAP (average ± E.P.M.): 25 ± 2%
[5]; 100 nM, 0.1 µM
  % Cell Proliferation Inhibition (intracellular DNA) LNCAP (average ± E.P.M.): 37 ± 3%
[5]; 300 nM, 0.3 µM
  % Cell Proliferation Inhibition (intracellular DNA) LNCAP (average ± E.P.M.): 38 ± 4%
[5]; 500 nM, 0.5 µM
  % Cell Proliferation Inhibition (intracellular DNA) LNCAP (average ± E.P.M.): 44 ± 2%
[5]; 1000 nM, 1 µM
  % Cell Proliferation Inhibition (intracellular DNA) LNCAP (average ± E.P.M.): 34 ± 6%
[5]; LNCAP prostate cancer tumor lineage
  antiproliferative effect, result in words: antiproliferative effect
PDE5A1 enzyme; 500 nM, 0.5 µM
  % of Inhibition (PDE5A1): 57%
PDE5A1 enzyme; 1000 nM, 1 µM
  % of Inhibition (PDE5A1): 71%
PDE5A1 enzyme; 3000 nM, 3 µM
  % of Inhibition (PDE5A1): 88%
PDE5A1 enzyme; over the concentrations tested
  PDE5 inhibition, result in words: capable of inhibiting the PDE5 in a dose-dependent manner

## CN1CC(=O)N2[C@H](c3ccc4c(c3)OCO4)c3[nH]c4ccccc4c3C[C@@H]2C1=O [Tadalafyl, tadalafil, reference compound]
PDE5A1 enzyme; read-out: % of Inhibition (PDE5A1)
  inhibition at 5 µM: 96 ± 2%

— patent US20220296590A1, “STEREOISOMERS OF THE COMPOUND 3-(BENZO[D][1,3]DIOXOL-5-YL)-7-(1-HYDROXYPROPAN-2-YL)-1-(1H-INDOL-3-YL)-6,7-DIHYDRO-3H-OXAZOL[3,4-A]PYRAZINE-5,8-DIONE AND USE THEREOF AS AN ANTITUMOR AGENT AND PHOSPHODIESTERASE ENZYME INHIBITOR” (BIOLAB SANUS FARMACEUTICA LTDA, priority 2019, published 2022)
